{"source": "patent US20070254843A1", "about": "“Methods for treating bone associated diseases by the use of methionine aminopeptidase-2 inhibitors” (Praecis Pharmaceuticals Incorporated, priority 2006, published 2007)", "key": {"[1]": {"tested_on": "primary human osteoclast (OC) precursors", "assay": "Osteoclast differentiation assay (TRAP staining)", "assay_type": "cell-based", "experimental": "Osteoclast differentiation assays. Primary human osteoclast (OC) precursors (Cambrex) were seeded at 10,000 cells/well (50,000 cells/ml) in osteoclast precursor growth medium (Cambrex). The cells were cultured for 7 days in the presence of either M-CSF (33 ng/ml), M-CSF (33 ng/ml) and RANKL (33 ng/ml), or in the presence of both cytokines and different concentrations of the MetAP-2 inhibitor. OC differentiation was determined by staining for the OC marker TRAP, using a leukocyte acid phosphatase kit (Sigma). Briefly, after 7 days in culture, the cells were rinsed once with PBS, fixed with 37% formaldehyde in acetone-citrate buffer for 1 min, and stained for development of red color according to the manufacturer's instructions.\n(§1) The instant invention features such an inhibitor. In order to investigate the activity of the MetAP-2 inhibitor on osteoclast (OC) differentiation and bone resorption in vitro, yet another cell type critically associated with R^A pathogenesis in an in vitro osteoclastogenesis model was utilized. Primary human OC precursors were cultured for 7 days in the presence of M-CSF and RANKL, and vehicle or increasing concentrations of the MetAP-2 inhibitor."}, "[2]": {"tested_on": "primary human OC cultured on human bone particles", "assay": "Bone resorption in vitro, CTX-I ELISA of culture supernatant", "assay_type": "cell-based", "experimental": "(§2) ELISAs for cartilage and bone biochemical turnover markers. The amount of COMP in serum was measured with a competitive enzyme immunoassay (MD Biosciences, Inc) according to the manufacturer's instructions. The detection limit of this ELISA was 0.2 U/L. Helical peptide (amino acids 620 to 633) from the α1 chain of bone-specific human CTX-I was measured either in cell culture supernatants of primary human OC precursors cultured as described above, or in urine with a competitive enzyme immunoassay (Quidel Corporation). The detection limit of this ELISA was 8 μg/L. All CTX-I measurements in urine were corrected for urinary creatinine excretion for each sample to account for potential differences in renal clearance rates among the different study groups. Urinary creatinine was measured with a colorimetric assay (Quidel Corporation).\nTo determine whether the inhibition of OC differentiation by the MetAP-2 inhibitor in vitro correlated with the inhibition of bone resorption in vitro, primary human OC were cultured on a thin layer of human bone particles in the presence of M-CSF and RANKL, and vehicle or increasing concentrations of the MetAP-2 inhibitor. […] After 7 days, the culture supernatant was collected and the amount of bone-specific collagen type I C-terminal helical peptide (CTX-I) was measured by ELISA."}, "[3]": {"tested_on": "primary human OC precursors", "assay": "Cytotoxicity in OC precursor culture", "assay_type": "cell-based", "details": "concentrations up to 100 nM", "experimental": "as §1"}, "[4]": {"tested_on": "PG-PS-induced arthritis", "assay": "Rat model of PG-PS induced arthritis, paw swelling", "assay_type": "in vivo", "details": "1, 5 and 10 mg/kg p.o. qod, day 15 to 31, versus vehicle", "method": "Rat model of PG-PS induced arthritis. Female Lewis rats (109-130 g) were received from Charles River Laboratories. Food and water were available ad libitum. PG-PS (25 mg/kg) was injected i.p. on day 1 and responding animals were randomized into treatment groups on day 14. Vehicle (11% HPCD in PBS), dex and the MetAP-2 inhibitor (1, 5, and 10 mg/kg) were administered p.o., qod. Paw swelling was monitored using a plethysmometer (Stoelting Co., Woodale, Ill.) according to instrument specifications. The volumes of the two hind paws were measured and averaged on day 1, 4, 6, 8, 10, 13, 15, 17, 20, 22, 23, 27, 29 and 31. Ten animals were assigned to each group except the vehicle group and animals which received no PG-PS, but 10 mg/kg MetAP-2 inhibitor (n=4).\nTherapeutic dosing of animals administered the MetAP-2 inhibitor orally (p.o.) at 1, 5 and 10 mg/kg, every other day (qod), or vehicle started at day 15 after the chronic destructive phase of the disease was established and terminated on day 31."}, "[5]": {"tested_on": "PG-PS-induced arthritis", "assay": "Clinical (histopathological) assessment of PG-PS arthritis, joint histology score", "assay_type": "in vivo, rat", "details": "for Total arthritis score / Bone Resorption score / Cartilage erosion score / Cell infiltration score / Pannus formation score: PG-PS arthritis; for Bone Resorption score / Cartilage erosion score / Cell infiltration score / Pannus formation score: score 0-4", "experimental": "Clinical assessment of PG-PS arthritis. The histopathological evaluation was performed on the left and right hind joints of randomly selected animals from each study group by an independent histopathologist without knowledge of specific interventions. After completion of the study, the left and right hind ankles were removed, fixed in 10% buffered formalin, decalcified in 5% formic acid, paraffin-embedded, sectioned, and H&E stained for histological evaluation. A joint histology scoring system which grades the severity of 4 histopathological processes (cell infiltration, pannus formation, cartilage erosion, bone resorption), was used to quantify hind joint involvement in the PG-PS arthritis model (36). Dependent on the assigned score for each parameter (0=normal, 1=minimal, 2=mild, 3=moderate, 4=marked), the maximum total score per ankle is 16, and 32 per animal.\nIt was investigated whether the protective activity of the MetAP-2 inhibitor in this animal model of arthritis, which is characterized by aggressive synovitis, extensive pannus formation, cartilage degradation and focal bone erosion, was mediated through regression in the severity of all clinical indices tested, or whether this activity was targeting specific pathogenic processes.\nA joint histology scoring system which grades the severity of 4 histopathological processes (cell infiltration, pannus formation, cartilage erosion, bone resorption) was used (O'Byrne (1991) Agents and Actions 134:239-241)."}, "[6]": {"tested_on": "COMP", "assay": "Serum COMP ELISA in rat PG-PS arthritis model", "assay_type": "in vivo", "details": "1, 5 and 10 mg/kg p.o. qod, after conclusion of the study", "experimental": "as §2\nThe destruction of articular joints is the radiographic hallmark of bone associated disease. Therefore, the activity of the MetAP-2 inhibitor on these destructive processes was assessed by measuring biochemical turnover markers of cartilage erosion and bone resorption. […] The amount of COMP in serum of animals treated therapeutically with the MetAP-2 inhibitor (1, 5, and 10 mg/kg, p.o., qod), or vehicle was measured after conclusion of the study."}, "[7]": {"tested_on": "CTX-I", "assay": "Urinary CTX-I ELISA in rat PG-PS arthritis model", "assay_type": "in vivo", "details": "1, 5 and 10 mg/kg p.o. qod", "experimental": "as §2\nTo assess the activity of the MetAP-2 inhibitor on systemic bone resorption in vivo, the amount of systemic CTX-I in urine was measured and corrected for urinary creatinine excretion after conclusion of the study."}, "[8]": {"tested_on": "HUVEC", "details": "in vitro; cited from earlier work"}, "[9]": {"tested_on": "HFLS-R^A", "details": "in vitro; cited from earlier work"}, "[10]": {"tested_on": "HFLS-R^A", "details": "100 nM; cited from earlier work"}}}
{"molecule": "CO[C@@H]1[C@H](OC(=O)N[C@@H](C(N)=O)C(C)C)CC[C@]2(CO2)[C@H]1[C@@]1(C)O[C@@H]1CC=C(C)C", "note": "[MetAP-2 inhibitor, (1-Carbamoyl-2-methyl-propyl)-carbamic acid-(3R,4S,5S,6R)-5-methoxy-4-[(2R,3R)-2-methyl-3-(3-methyl-but-2-enyl)-oxiranyl]-1-oxa-spiro[2,5]oct-6-yl ester]", "values": [{"measurement": "reversibility of the inhibition of OC differentiation", "setting": "[1]", "value": "fully reversible"}, {"measurement": "inhibition of OC differentiation", "setting": "[1]; concentration ≦0.1 nM", "value": "no detectable inhibition"}, {"measurement": "generation of TRAP-positive mononuclear and multinucleated OC", "setting": "[1]; concentrations at ≦1 nM, 7 days with M-CSF and RANKL", "value": "almost completely inhibited"}, {"measurement": "IC50", "setting": "[2]; 168 h, 7 days, M-CSF and RANKL, human bone particles, read-out: IC50, bone resorbing activity of OC (CTX-I)", "value": "≤ 0.1", "unit": "nM"}, {"measurement": "degree of inhibition of bone resorption", "setting": "[2]; at 1 nM and 10 nM, versus E-64 at 100 nM", "value": "comparable to the inhibitory activity of E-64 at 100 nM"}, {"measurement": "cytotoxicity", "setting": "[3]", "value": "did not induce cytotoxicity"}, {"measurement": "joint swelling and inflammation, paw swelling of the hind limbs", "setting": "[4]", "value": "significant amelioration"}, {"measurement": "total arthritic score versus vehicle", "setting": "[5]; 1, 5, 10 mg/kg p.o. qod", "value": "significantly decreased"}, {"measurement": "Total arthritis score", "setting": "[5]; 1 mg/kg", "value": "7.00 ± 0.58^B"}, {"measurement": "Bone Resorption score", "setting": "[5]; 1 mg/kg", "value": "2.05 ± 0.2"}, {"measurement": "Cartilage erosion score", "setting": "[5]; 1 mg/kg", "value": "1.10 ± 0.12^B"}, {"measurement": "Cell infiltration score", "setting": "[5]; 1 mg/kg", "value": "1.85 ± 0.15^A"}, {"measurement": "Pannus formation score", "setting": "[5]; 1 mg/kg", "value": "2.00 ± 0.14^A"}, {"measurement": "Total arthritis score", "setting": "[5]; 5 mg/kg", "value": "7.60 ± 0.67^B"}, {"measurement": "Bone Resorption score", "setting": "[5]; 5 mg/kg", "value": "1.80 ± 0.20^B"}, {"measurement": "Cartilage erosion score", "setting": "[5]; 5 mg/kg", "value": "1.25 ± 0.18^B"}, {"measurement": "Cell infiltration score", "setting": "[5]; 5 mg/kg", "value": "2.15 ± 0.18^A"}, {"measurement": "Pannus formation score", "setting": "[5]; 5 mg/kg", "value": "2.40 ± 0.20^A"}, {"measurement": "Total arthritis score", "setting": "[5]; 10 mg/kg", "value": "5.83 ± 0.71^B"}, {"measurement": "Bone Resorption score", "setting": "[5]; 10 mg/kg", "value": "2.00 ± 0.16^B"}, {"measurement": "Cartilage erosion score", "setting": "[5]; 10 mg/kg", "value": "0.72 ± 0.14^B"}, {"measurement": "Cell infiltration score", "setting": "[5]; 10 mg/kg", "value": "1.38 ± 0.31^A"}, {"measurement": "Pannus formation score", "setting": "[5]; 10 mg/kg", "value": "1.72 ± 0.20^A"}, {"measurement": "systemic level of COMP in serum", "setting": "[6]", "value": "significant decrease"}, {"measurement": "systemic urinary CTX-I levels corrected for creatinine, versus vehicle", "setting": "[7]", "value": "significantly decreased"}, {"measurement": "inhibition of proliferation of HUVEC", "setting": "[8]", "value": "potently inhibit"}, {"measurement": "inhibition of proliferation of HFLS-RA", "setting": "[9]", "value": "potently inhibit"}, {"measurement": "induction of apoptosis in HFLS-RA", "setting": "[10]", "value": "did not induce apoptosis"}]}
